Experimental data: PubChem BioAssay AID330 (DTP/NCI, 2004)
Values joined by “and” are separate entries in the source; they are usually repeats but may differ in a detail not shown here. Equal values may be shown once. Inconclusive results and toxic doses are left out.

System: P388 leukemia ip, CD2F1 mice, survival T/C
Assay: NCI In Vivo Anticancer Drug Screen. Data for tumor model P388 Leukemia (intraperitoneal) in CD2F1 (CDF1) mice
Settings: endpoint: median survival time, higher = longer survival
Method in brief: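 Mice carrying the transplanted tumor received test compound or vehicle. Survival was recorded in each group, and the value is the treated-group measurement divided by that of the vehicle-treated control group.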

[1] = dose: 50.0 mg/kg/injection, schedule: Q01DX005 (ip), vehicle: saline with Tween-80
[2] = dose: 100.0 mg/kg/injection, schedule: Q01DX005 (ip), vehicle: saline with Tween-80
[3] = dose: 200.0 mg/kg/injection, schedule: Q01DX005 (ip), vehicle: saline with Tween-80
[4] = dose: 50.0 mg/kg/injection, schedule: Q01DX009 (ip), vehicle: saline with Tween-80
[5] = dose: 100.0 mg/kg/injection, schedule: Q01DX009 (ip), vehicle: saline with Tween-80
[6] = dose: 200.0 mg/kg/injection, schedule: Q01DX009 (ip), vehicle: saline with Tween-80
[7] = dose: 25.0 mg/kg/injection, schedule: Q01DX009 (ip), vehicle: other
[8] = dose: 50.0 mg/kg/injection, schedule: Q01DX009 (ip), vehicle: other
[9] = dose: 100.0 mg/kg/injection, schedule: Q01DX009 (ip), vehicle: other
[10] = dose: 200.0 mg/kg/injection, schedule: Q01DX009 (ip), vehicle: other
[11] = dose: 50.0 mg/kg/injection, schedule: Q01DX005 (ip), vehicle: Klucel (hydroxypropylcellulose) (HPC)
[12] = dose: 100.0 mg/kg/injection, schedule: Q01DX005 (ip), vehicle: Klucel (hydroxypropylcellulose) (HPC)
[13] = dose: 60.0 mg/kg/injection, schedule: Q01DX005 (ip), vehicle: Klucel (hydroxypropylcellulose) (HPC)
[14] = dose: 240.0 mg/kg/injection, schedule: Q01DX005 (ip), vehicle: Klucel (hydroxypropylcellulose) (HPC)
[15] = dose: 60.0 mg/kg/injection, schedule: Q01DX005 (ip), vehicle: saline with Tween-80
[16] = dose: 120.0 mg/kg/injection, schedule: Q01DX005 (ip), vehicle: saline with Tween-80
[17] = dose: 240.0 mg/kg/injection, schedule: Q01DX005 (ip), vehicle: saline with Tween-80
[18] = dose: 12.5 mg/kg/injection, schedule: Q01DX009 (ip), vehicle: other
[19] = dose: 200.0 mg/kg/injection, schedule: Q01DX005 (ip), vehicle: Klucel (hydroxypropylcellulose) (HPC)

## O=C(Nc1ccccc1)C1(C(=O)Nc2ccccc2)SSC(C(=O)Nc2ccccc2)(C(=O)Nc2ccccc2)SS1
[1]
  T/C: 107 % of control
[2]
  T/C: 96 % of control
[3]
  T/C: 89 % of control

## COC(=S)c1cccc(C(=S)OC)c1
[4]
  T/C: 108 % of control
[5]
  T/C: 115 % of control
[6]
  T/C: 108 % of control

## Nc1nc2c(c(=O)[nH]1)N(C=O)C(CNc1ccc(C(=O)N[C@@H](CCC(=O)O)C(=O)O)cc1)CN2 (some centres undefined)
dose: 125.0 mg/kg/injection, schedule: Q04DX003 (ip), vehicle: saline
  T/C: 108 % of control
dose: 250.0 mg/kg/injection, schedule: Q04DX003 (ip), vehicle: saline
  T/C: 99 % of control
dose: 500.0 mg/kg/injection, schedule: Q04DX003 (ip), vehicle: saline
  T/C: 99 % of control

## [I][Pt+2][I].[NH-]C1CCCC1[NH-] (centres undefined)
dose: 100.0 mg/kg/injection, schedule: Q04DX002 (ip), vehicle: saline with Tween-80
  T/C: 166 % of control

## Nc1c(C(=O)NCCc2ccccc2)c2nc3c(C(=O)NCCc4ccccc4)cccc3oc-2cc1=O
[1]
  T/C: 96 % of control
[2]
  T/C: 89 % of control
[3]
  T/C: 105 % of control

## CCCCCC(CN(C)C)C(=O)CC(SCC)c1ccc(Cl)c(Cl)c1 (centres undefined)
dose: 6.25 mg/kg/injection, schedule: Q01DX009 (ip), vehicle: water
  T/C: 102 % of control and 113 % of control
dose: 12.5 mg/kg/injection, schedule: Q01DX009 (ip), vehicle: water
  T/C: 107 % of control and 109 % of control and 111 % of control
dose: 25.0 mg/kg/injection, schedule: Q01DX009 (ip), vehicle: water
  T/C: 107 % of control and 120 % of control and 95 % of control
dose: 50.0 mg/kg/injection, schedule: Q01DX009 (ip), vehicle: water
  T/C: 101 % of control and 112 % of control and 115 % of control
dose: 100.0 mg/kg/injection, schedule: Q01DX009 (ip), vehicle: water
  T/C: 108 % of control

## COc1cc(Br)c(C(=O)Nc2ccc(O)cc2)cc1OC
[7]
  T/C: 103 % of control and 107 % of control
[8]
  T/C: 110 % of control
[9]
  T/C: 106 % of control and 118 % of control
[10]
  T/C: 106 % of control and 117 % of control
dose: 400.0 mg/kg/injection, schedule: Q01DX009 (ip), vehicle: other
  T/C: 106 % of control

## C1CNC(N2CCN(C3=NCCN3)CC2)=N1
[11]
  T/C: 104 % of control
[12]
  T/C: 100 % of control

## c1ccc2c(c1)CCc1c-2n[nH]c1-c1[nH]nc2c1CCc1ccccc1-2
[13]
  T/C: 99 % of control
dose: 120.0 mg/kg/injection, schedule: Q01DX005 (ip), vehicle: Klucel (hydroxypropylcellulose) (HPC)
  T/C: 89 % of control
[14]
  T/C: 88 % of control

## Cc1c(Cl)cccc1NC(=O)NNC(=O)c1ccncc1
dose: 50.0 mg/kg/injection, schedule: Q01DX009 (ip), vehicle: Klucel (hydroxypropylcellulose) (HPC)
  T/C: 90 % of control
dose: 100.0 mg/kg/injection, schedule: Q01DX009 (ip), vehicle: Klucel (hydroxypropylcellulose) (HPC)
  T/C: 88 % of control
dose: 200.0 mg/kg/injection, schedule: Q01DX009 (ip), vehicle: Klucel (hydroxypropylcellulose) (HPC)
  T/C: 88 % of control

## CCc1c(O)c(C#N)c2[nH]c3cc(C)c(C)cc3n2c1=O
[15]
  T/C: 100 % of control
[16]
  T/C: 102 % of control
[17]
  T/C: 99 % of control

## Cc1ccc(C(O)(c2ccc(C)cc2)C2(O)CCCCC2)cc1
[1]
  T/C: 109 % of control
[2]
  T/C: 100 % of control
[3]
  T/C: 101 % of control

## COc1ccc2c(N)c3cccc[n+]3cc2c1OC
dose: 6.25 mg/kg/injection, schedule: Q04DX003 (ip), vehicle: water
  T/C: 106 % of control and 108 % of control
dose: 12.5 mg/kg/injection, schedule: Q04DX003 (ip), vehicle: water
  T/C: 116 % of control and 121 % of control
dose: 25.0 mg/kg/injection, schedule: Q04DX003 (ip), vehicle: water
  T/C: 118 % of control and 122 % of control
dose: 50.0 mg/kg/injection, schedule: Q04DX003 (ip), vehicle: water
  T/C: 103 % of control

## Cc1ccc(C(=O)CC[N+](C)(C)C)cc1
dose: 3.13 mg/kg/injection, schedule: Q01DX009 (ip), vehicle: saline
  T/C: 109 % of control
dose: 6.25 mg/kg/injection, schedule: Q01DX009 (ip), vehicle: saline
  T/C: 113 % of control
dose: 12.5 mg/kg/injection, schedule: Q01DX009 (ip), vehicle: saline
  T/C: 109 % of control

## O=C(NNS(=O)(=O)CCC(NC(=O)OCc1ccccc1)C(=O)OCc1ccccc1)OCc1ccccc1 (centres undefined)
[18]
  T/C: 110 % of control
[7]
  T/C: 102 % of control
[8]
  T/C: 96 % of control
[9]
  T/C: 96 % of control

## O=C1OCCC1(S)C(O)c1ccccc1 (centres undefined)
dose: 21.25 mg/kg/injection, schedule: Q01DX005 (ip), vehicle: acetone
  T/C: 103 % of control
dose: 42.5 mg/kg/injection, schedule: Q01DX005 (ip), vehicle: acetone
  T/C: 100 % of control
dose: 85.0 mg/kg/injection, schedule: Q01DX005 (ip), vehicle: acetone
  T/C: 103 % of control

## CC1(C)OC(=O)C(C)(C2(O)C=CCCC2)O1 (centres undefined)
dose: 100.0 mg/kg/injection, schedule: Q01DX001 (ip), vehicle: Klucel (hydroxypropylcellulose) (HPC)
  T/C: 102 % of control
dose: 200.0 mg/kg/injection, schedule: Q01DX001 (ip), vehicle: Klucel (hydroxypropylcellulose) (HPC)
  T/C: 102 % of control
dose: 400.0 mg/kg/injection, schedule: Q01DX001 (ip), vehicle: Klucel (hydroxypropylcellulose) (HPC)
  T/C: 101 % of control

## CC1CCC2(C(=O)O)CCC3(C)C(=CCC4C5(C)CCC(OC(=O)/C=C/c6ccccc6)C(C)(C)C5CCC43C)C2C1C (centres undefined)
dose: 7.44 mg/kg/injection, schedule: Q01DX009 (ip), vehicle: Klucel (hydroxypropylcellulose) (HPC)
  T/C: 107 % of control
dose: 14.88 mg/kg/injection, schedule: Q01DX009 (ip), vehicle: Klucel (hydroxypropylcellulose) (HPC)
  T/C: 100 % of control
dose: 29.76 mg/kg/injection, schedule: Q01DX009 (ip), vehicle: Klucel (hydroxypropylcellulose) (HPC)
  T/C: 101 % of control

## Cc1cc2c(=O)cc(-c3ccccc3Cl)oc2c(C#N)c1C
dose: 1.87 mg/kg/injection, schedule: Q01DX005 (ip), vehicle: Klucel (hydroxypropylcellulose) (HPC)
  T/C: 95 % of control
dose: 3.75 mg/kg/injection, schedule: Q01DX005 (ip), vehicle: Klucel (hydroxypropylcellulose) (HPC)
  T/C: 101 % of control
dose: 7.5 mg/kg/injection, schedule: Q01DX005 (ip), vehicle: Klucel (hydroxypropylcellulose) (HPC)
  T/C: 117 % of control
[13]
  T/C: 86 % of control
[14]
  T/C: 95 % of control

## Nc1c(C(=O)O)c(Br)cc2c1C(=O)c1ccccc1C2=O
[11]
  T/C: 99 % of control
[12]
  T/C: 99 % of control
[19]
  T/C: 107 % of control

## O=C(c1cc2c(cc1Br)OCO2)N1CCc2cc([N+](=O)[O-])ccc21
[18]
  T/C: 118 % of control
[7]
  T/C: 110 % of control
[8]
  T/C: 105 % of control
[10]
  T/C: 104 % of control

## CN=C(N)N/N=C(\C)c1ccc2c(c1)Cc1cc(Br)ccc1-2
dose: 6.25 mg/kg/injection, schedule: Q04DX002 (ip), vehicle: saline with Tween-80
  T/C: 102 % of control
dose: 12.5 mg/kg/injection, schedule: Q04DX002 (ip), vehicle: saline with Tween-80
  T/C: 105 % of control
dose: 25.0 mg/kg/injection, schedule: Q04DX002 (ip), vehicle: saline with Tween-80
  T/C: 105 % of control and 124 % of control
dose: 50.0 mg/kg/injection, schedule: Q04DX002 (ip), vehicle: saline with Tween-80
  T/C: 98 % of control and 101 % of control

## Cc1cc(=O)oc2c1c(=O)[nH]n2-c1ccccc1
[11]
  T/C: 95 % of control
[12]
  T/C: 87 % of control
[19]
  T/C: 86 % of control

## CCc1nc(N)nc(N)c1-c1ccc2c(c1)nnn2C
[11]
  T/C: 104 % of control
[12]
  T/C: 104 % of control
[19]
  T/C: 95 % of control

## CC(C)=CCc1c2c(c(O)c3c(=O)c(-c4ccc(O)c(O)c4)coc13)C=CC(C)(C)O2
dose: 25.0 mg/kg/injection, schedule: Q01DX009 (ip), vehicle: saline with Tween-80
  T/C: 99 % of control
[4]
  T/C: 105 % of control
[5]
  T/C: 99 % of control
[6]
  T/C: 106 % of control

## COc1ccc(-n2c(CSc3ccc(Cl)cc3)n[nH]c2=S)cc1
[15]
  T/C: 104 % of control
[16]
  T/C: 96 % of control
[17]
  T/C: 95 % of control

## CC(O)(Cc1ccccc1)c1ccccc1 (centres undefined)
dose: 100.0 mg/kg/injection, schedule: Q04DX003 (ip), vehicle: saline with Tween-80
  T/C: 100 % of control
dose: 200.0 mg/kg/injection, schedule: Q04DX003 (ip), vehicle: saline with Tween-80
  T/C: 104 % of control
dose: 400.0 mg/kg/injection, schedule: Q04DX003 (ip), vehicle: saline with Tween-80
  T/C: 109 % of control
